Laboratory results taken from patent US20250059174A1, “Pharmaceutical Compounds and Compositions as C-Kit Kinase Inhibitors” (Enanta Pharmaceuticals, Inc., priority 2023, published 2025).
pEC50, pIC50: −log10 of the molar value.

Experiments:
[1] = target: Recombinant human c-KIT kinase (Homo sapiens (Human), UniProt P10721); assay: c-KIT kinase chemiluminescence assay (ADP-Glo); type: biochemical; details: ATP 50 μM
How it was run: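 Recombinant human c-KIT preincubated 30 min at RT in 40 mM Tris pH 7.5, 20 mM MgCl2, 0.1 mg/mL BSA, 50 μM DTT, then reacted 2 h at RT with ATP and polyEY substrate. ADP-Glo luminescence readout; activity normalized to high/low controls, IC50 and Hill coefficient from inhibitor-versus-normalized-response fit.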

M-07e cells = assay: M-07e cellular assay (SCF-mediated cell proliferation); type: cell-based; details: Homo sapiens, 72 hours, CellTiter Glo
How it was run: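 CellTiter Glo luminescence after 72 h compound exposure in SCF (EC90)-stimulated M-07e cells expressing endogenous human c-KIT.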

Recombinant human c-KIT kinase, sequence (P10721 26-976): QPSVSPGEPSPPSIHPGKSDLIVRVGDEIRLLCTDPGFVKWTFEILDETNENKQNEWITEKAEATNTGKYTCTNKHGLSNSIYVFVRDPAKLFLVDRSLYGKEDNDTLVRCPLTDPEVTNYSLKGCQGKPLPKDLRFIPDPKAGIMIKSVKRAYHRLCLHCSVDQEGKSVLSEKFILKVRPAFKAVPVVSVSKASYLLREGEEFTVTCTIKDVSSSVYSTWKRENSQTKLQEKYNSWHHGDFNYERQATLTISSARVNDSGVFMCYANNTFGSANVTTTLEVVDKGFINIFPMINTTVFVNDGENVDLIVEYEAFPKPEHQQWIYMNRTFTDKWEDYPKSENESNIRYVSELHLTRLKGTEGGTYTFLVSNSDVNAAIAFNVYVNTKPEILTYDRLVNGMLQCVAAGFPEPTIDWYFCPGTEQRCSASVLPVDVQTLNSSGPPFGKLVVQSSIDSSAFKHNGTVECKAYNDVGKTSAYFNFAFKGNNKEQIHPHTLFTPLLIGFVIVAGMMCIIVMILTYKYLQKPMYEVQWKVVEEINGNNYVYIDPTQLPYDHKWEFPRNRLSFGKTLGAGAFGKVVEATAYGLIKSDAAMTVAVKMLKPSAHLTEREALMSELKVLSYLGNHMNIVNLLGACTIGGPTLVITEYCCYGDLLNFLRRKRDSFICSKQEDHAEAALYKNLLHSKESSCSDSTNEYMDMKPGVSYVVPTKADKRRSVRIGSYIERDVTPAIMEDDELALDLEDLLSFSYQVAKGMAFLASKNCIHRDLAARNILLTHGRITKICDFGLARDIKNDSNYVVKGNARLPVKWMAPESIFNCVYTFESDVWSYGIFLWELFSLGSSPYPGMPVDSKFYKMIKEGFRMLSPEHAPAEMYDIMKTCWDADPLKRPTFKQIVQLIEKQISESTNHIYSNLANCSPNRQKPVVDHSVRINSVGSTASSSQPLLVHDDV

SMILES | pIC50 [1] | pEC50 (M-07e cells)
Cc1ccc(-c2noc([C@H]3C[C@@H]3F)n2)cc1NC(=O)c1cnc(-c2ccc3[nH]ccc3c2)o1 [Example 293] | > 7.00 | > 7.00
Cc1ccc(-c2noc([C@H]3C[C@@H]3F)n2)cc1NC(=O)c1cnc(-c2ccc3cn[nH]c3c2)o1 [Example 294] | > 7.00 | 6.00 to 7.00
Cc1ccc(-c2noc([C@H]3C[C@@H]3F)n2)cc1NC(=O)c1cnc(-c2ccc3cc[nH]c3c2)o1 [Example 295] | > 7.00 | 6.00 to 7.00
Cc1ccc(-c2noc([C@H]3C[C@@H]3F)n2)cc1NC(=O)c1cnc(-c2ccccn2)o1 [Example 296] | < 6.00 | < 6.00
Cc1ccc(-c2noc([C@H]3C[C@@H]3F)n2)cc1NC(=O)c1cnc(-c2ccc(N3CC4(COC4)C3)cc2)o1 [Example 297] | 6.00 to 7.00 | 6.00 to 7.00
Cc1ccc(-c2noc([C@H]3C[C@@H]3F)n2)cc1NC(=O)c1cnc(-c2ccc(NC(=O)OC(C)(C)C)nc2)o1 [Example 298] | < 6.00 | 6.00 to 7.00
Cc1ccc(-c2noc([C@H]3C[C@@H]3F)n2)cc1NC(=O)c1cnc(-c2ccc3c(c2)CC(=O)N3)o1 [Example 299] | > 7.00 | > 7.00
Cc1ccc(-c2noc([C@H]3C[C@@H]3F)n2)cc1NC(=O)c1cnc(-c2ccc3[nH]c(=O)oc3c2)o1 [Example 300] | 6.00 to 7.00 | 6.00 to 7.00
Cc1ccc(-c2noc([C@H]3C[C@@H]3F)n2)cc1NC(=O)c1cnc(-c2ccc3c(c2)NC(=O)C3)o1 [Example 301] | 6.00 to 7.00 | < 6.00
Cc1ccc(-c2noc([C@H]3C[C@@H]3F)n2)cc1NC(=O)c1cnc(-c2ccc3[nH]c(=O)[nH]c3c2)o1 [Example 302] | > 7.00 | < 6.00
Cc1ccc(-c2noc([C@H]3C[C@@H]3F)n2)cc1NC(=O)c1cnc(-c2ccc3[nH]c4ccccc4c3c2)o1 [Example 303] | 6.00 to 7.00 | 6.00 to 7.00
Cc1ccc(-c2noc([C@H]3C[C@@H]3F)n2)cc1NC(=O)c1cnc(-c2ccc3[nH]c(C(F)(F)F)cc3c2)o1 [Example 304] | > 7.00 | > 7.00
Cc1ccc(-c2noc([C@H]3C[C@@H]3F)n2)cc1NC(=O)c1cnc(-c2cccc(N)n2)o1 [Example 305] | < 6.00 | < 6.00
Cc1ccc(-c2noc([C@H]3C[C@@H]3F)n2)cc1NC(=O)c1cnc(-c2cccc(NC(=O)OC(C)(C)C)n2)o1 [Example 306] | < 6.00 | < 6.00
Cc1ccc(-c2noc([C@H]3C[C@@H]3F)n2)cc1NC(=O)c1cnc(-c2ccc3oc(=O)[nH]c3c2)o1 [Example 307] | < 6.00 | 6.00 to 7.00
Cc1ccc(-c2noc([C@H]3C[C@@H]3F)n2)cc1NC(=O)c1cnc(-c2ccc3[nH]c(C#N)cc3c2)o1 [Example 308-1] | 6.00 to 7.00 | 6.00 to 7.00
Cc1ccc(-c2noc([C@H]3C[C@@H](C(F)(F)F)C3)n2)cc1NC(=O)c1cnc(-c2ccc3c(c2)CC(=O)N3)o1 [Example 308-2] | > 7.00 | > 7.00
Cc1ccc(-c2noc([C@H]3C[C@@H](OC(F)(F)F)C3)n2)cc1NC(=O)c1cnc(-c2ccc3c(c2)CC(=O)N3)o1 [Example 308-3] | > 7.00 | > 7.00
Cc1ccc(-c2noc([C@H]3C[C@@H]3F)n2)cc1NC(=O)c1cnc(-c2ccc3c(c2)C2(CC2)C(=O)N3)o1 [Example 308-4] | 6.00 to 7.00 | 6.00 to 7.00
Cc1ccc(-c2noc([C@H]3C[C@@H]3F)n2)cc1NC(=O)c1cnc(-n2cccn2)o1 [Example 308-5] | < 6.00 | < 6.00
Cc1cc(C)n(-c2ncc(C(=O)Nc3cc(-c4noc([C@H]5C[C@@H]5F)n4)ccc3C)o2)n1 [Example 308-6] | < 6.00 | < 6.00
Cc1ccc(-c2noc([C@H]3C[C@@H]3F)n2)cc1NC(=O)c1cnc(-c2c(C)nn(CC(C)(C)O)c2C)o1 [Example 308-7] | < 6.00 | < 6.00
Cc1ccc(-c2noc([C@H]3C[C@@H]3F)n2)cc1NC(=O)c1cnc(-c2ccc3c(c2)C2(CCN(C(=O)OC(C)(C)C)CC2)C(=O)N3)o1 [Example 308-8] | < 6.00 | 6.00 to 7.00
Cc1ccc(-c2noc([C@H]3C[C@@H]3F)n2)cc1NC(=O)c1cnc(-c2ccc3c(c2)C2(CCNCC2)C(=O)N3)o1 [Example 308-9] | 6.00 to 7.00 | < 6.00
Cc1cc(F)c(-c2noc([C@H]3C[C@@H]3F)n2)cc1NC(=O)c1cnc(-c2ccc3c(cnn3C(=O)OC(C)(C)C)c2)o1 [Example 308-10] | < 6.00 | 6.00 to 7.00
Cc1cc(F)c(-c2noc([C@H]3C[C@@H]3F)n2)cc1NC(=O)c1cnc(-c2ccc3[nH]ncc3c2)o1 [Example 308-11] | 6.00 to 7.00 | 6.00 to 7.00
Cc1ncc(-c2noc([C@H]3C[C@@H]3F)n2)cc1NC(=O)c1cnc(-c2ccc3c(c2)CC(=O)N3)o1 [Example 308-12] | < 6.00 | 6.00 to 7.00

SMILES | pIC50 [1] | pEC50 (M-07e cells)
Cc1ccc(-c2noc([C@H]3C[C@@H]3F)n2)cc1NC(=O)c1cnc(-c2ccc(-n3cccn3)cc2)o1 [Example 308-13] | < 6.00 | < 6.00
Cc1ccc(-c2noc([C@H]3C[C@@H]3F)n2)cc1NC(=O)c1cnc(-c2ccc3[nH]c(=O)ccc3c2)o1 [Example 308-14] | > 7.00 | > 7.00
Cc1ccc(-c2noc([C@H]3C[C@@H]3F)n2)cc1NC(=O)c1cnc(-c2ccc3c(c2)CCC(=O)N3)o1 [Example 308-15] | 6.00 to 7.00 | 6.00 to 7.00
Cc1ccc(-c2noc([C@H]3C[C@@H]3F)n2)cc1NC(=O)c1cnc(-c2ccc(-c3cnn(C)c3)cc2)o1 [Example 308-16] | 6.00 to 7.00 | 6.00 to 7.00
Cc1ccc(-c2noc([C@H]3C[C@@H]3F)n2)cc1NC(=O)c1cnc(-c2cnc3[nH]ccc3c2)o1 [Example 308-17] | > 7.00 | > 7.00
Cc1ccc(-c2noc([C@H]3C[C@@H]3F)n2)cc1NC(=O)c1cnc(-c2ccc3nccn3c2)o1 [Example 308-18] | 6.00 to 7.00 | 6.00 to 7.00
CC(=O)Nc1ccc(-c2ncc(C(=O)Nc3cc(-c4noc([C@H]5C[C@@H]5F)n4)ccc3C)o2)cc1 [Example 308-19] | 6.00 to 7.00 | 6.00 to 7.00
CC(=O)Nc1ccc(-c2ncc(C(=O)Nc3cc(-c4noc([C@H]5C[C@@H]5F)n4)ccc3C)o2)cn1 [Example 308-20] | < 6.00 | 6.00 to 7.00
Cc1ccc(-c2noc([C@H]3C[C@@H]3F)n2)cc1NC(=O)c1cnc(-c2ccc3[nH]nc(C)c3c2)o1 [Example 308-21] | > 7.00 | > 7.00
Cc1ccc(-c2noc([C@H]3C[C@@H]3F)n2)cc1NC(=O)c1cnc(-c2ccc(NS(C)(=O)=O)cc2)o1 [Example 308-22] | 6.00 to 7.00 | 6.00 to 7.00
Cc1ccc(-c2noc([C@H]3C[C@@H]3F)n2)cc1NC(=O)c1cnc(-c2cccc3cn[nH]c23)o1 [Example 308-23] | > 7.00 | < 6.00
Cc1ccc(-c2noc([C@H]3C[C@@H]3F)n2)cc1NC(=O)c1cnc(-c2ccc3c(c2)OCCN3)o1 [Example 308-24] | > 7.00 | > 7.00
Cc1ccc(-c2noc([C@H]3C[C@@H]3F)n2)cc1NC(=O)c1cnc(-c2ccc3c(c2)OC(C)(C)C(=O)N3)o1 [Example 308-25] | 6.00 to 7.00 | 6.00 to 7.00
CCOC(=O)c1cc2cc(-c3ncc(C(=O)Nc4cc(-c5noc([C@H]6C[C@@H]6F)n5)ccc4C)o3)ccc2[nH]1 [Example 308-26] | > 7.00 | 6.00 to 7.00
Cc1cc2cc(-c3ncc(C(=O)Nc4cc(-c5noc([C@H]6C[C@@H]6F)n5)ccc4C)o3)ccc2[nH]1 [Example 308-27] | > 7.00 | > 7.00
Cc1ccc(-c2noc([C@H]3C[C@@H]3F)n2)cc1NC(=O)c1cnc(-c2cccc(NS(C)(=O)=O)c2)o1 [Example 308-28] | 6.00 to 7.00 | 6.00 to 7.00
Cc1ccc(-c2noc([C@H]3C[C@@H]3F)n2)cc1NC(=O)c1cnc(-c2cccc3[nH]ccc23)o1 [Example 308-29] | > 7.00 | 6.00 to 7.00
CNS(=O)(=O)c1cccc(-c2ncc(C(=O)Nc3cc(-c4noc([C@H]5C[C@@H]5F)n4)ccc3C)o2)c1 [Example 308-30] | 6.00 to 7.00 | 6.00 to 7.00
Cc1ccc(-c2noc([C@H]3C[C@@H]3F)n2)cc1NC(=O)c1cnc(-c2ccc3cn(C)nc3c2)o1 [Example 308-31] | 6.00 to 7.00 | 6.00 to 7.00
Cc1ccc(-c2noc([C@H]3C[C@@H]3F)n2)cc1NC(=O)c1cnc(-c2ccc3cnn(C)c3c2)o1 [Example 308-32] | > 7.00 | 6.00 to 7.00
Cc1ccc(-c2noc([C@H]3C[C@@H]3F)n2)cc1NC(=O)c1cnc(-c2cccc3c2NC(=O)C3)o1 [Example 308-33] | < 6.00 | < 6.00
Cc1ccc(-c2noc([C@H]3C[C@@H]3F)n2)cc1NC(=O)c1cnc(-c2cccc3[nH]c(=O)[nH]c23)o1 [Example 308-34] | 6.00 to 7.00 | < 6.00
Cc1ccc(-c2noc([C@H]3C[C@@H]3F)n2)cc1NC(=O)c1cnc(-c2ccc3c(c2)oc(=O)n3C)o1 [Example 308-35] | 6.00 to 7.00 | 6.00 to 7.00
Cc1ccc(-c2noc([C@H]3C[C@@H]3F)n2)cc1NC(=O)c1cnc(-c2ccc3c(c2)NCCO3)o1 [Example 308-36] | > 7.00 | > 7.00
Cc1ccc(-c2noc([C@H]3C[C@@H]3F)n2)cc1NC(=O)c1cnc(-c2ccc3c(c2)C(C)(C)C(=O)N3)o1 [Example 308-37] | 6.00 to 7.00 | 6.00 to 7.00
Cc1ccc(-c2noc([C@H]3C[C@@H]3F)n2)cc1NC(=O)c1cnc(-c2cccc3nc[nH]c23)o1 [Example 308-38] | 6.00 to 7.00 | 6.00 to 7.00
